{
  "source": "patent US20130296384A1",
  "about": "“N-SUBSTITUTED(6 HALOALKYLPYRIDIN 3 YL)ALKYL SULFOXIMINES AS A SEED TREATMENT TO CONTROL COLEOPTERAN INSECTS” (Dow AgroSciences LLC, priority 2012, published 2013)",
  "key": {"canola (Brassica napus) [1]": {"test_system": "canola (Brassica napus)", "assay": "Canola seed treatment field test: canola plant vigor under natural flea beetle infestation", "type": "in vivo", "settings": "13 days after canola emergence", "description": "(§1) The effectiveness of sulfoxaflor as a canola (Brassica napus) seed treatment to control feeding damage by cabbage flea beetle (Phyllotreta cruciferae) was evaluated against the commercial standard thiamethoxam (Helix Xtra). Canola seeds were sprayed with a range of insecticides, including Helix Xtra at a use rate of about 0.4 milligrams (mg) thiamethoxam ai/seed, spinosyn A and spinosyn D (spinosad) at a low use rate of about 0.2 mg ai/seed and a high use rate of about 0.6 mg ai/seed, spinetoram at a low use rate of about 0.2 mg ai/seed and a high use rate about 0.6 mg ai/seed, and sulfoxaflor at a low use rate of about 0.2 mg ai/seed and a high use rate about 0.6 mg ai/seed. Each treatment was replicated four (4) times. The canola seeds were planted and then exposed to a natural infestation of the cabbage flea beetles soon after emergence.\nCanola plant vigor was evaluated at thirteen (13) days after the canola seed emerged from the ground described above. […] As depicted in FIG. 3, both the low use rate of sulfoxaflor and the high use rate of sulfoxaflor facilitated improved canola plant vigor as compared to the use of Helix Xtra."}, "canola (Brassica napus) [2]": {"test_system": "canola (Brassica napus)", "assay": "Canola seed treatment field test: canola plant yield under natural flea beetle infestation", "type": "in vivo", "settings": "107 days after canola emergence", "description": "as §1\nCanola plant yield was evaluated at 107 days after the canola seed emerged from the ground described above. […] As depicted in FIG. 4, the low use rate of sulfoxaflor facilitated a canola plant yield similar to that facilitated by the use of Helix Xtra, and the high use rate of sulfoxaflor facilitated improved canola plant yield as compared to the use of Helix Xtra."}, "[3]": {"settings": "high use rate about 0.6 mg ai/seed"}, "[4]": {"settings": "low use rate about 0.2 mg ai/seed"}},
  "data": [
    {"smiles": "CC(c1ccc(C(F)(F)F)nc1)S(C)(=O)=NC#N", "note": "(stereo not shown) [sulfoxaflor]", "values": [
      {"measurement": "canola plant vigor", "setting": "canola (Brassica napus) [1]; [3]", "result": "about 69%"},
      {"measurement": "canola plant vigor", "setting": "canola (Brassica napus) [1]; [4]", "result": "about 87%"},
      {"measurement": "canola plant yield", "setting": "canola (Brassica napus) [2]; [3]", "result": "about 4500 kg/ha"},
      {"measurement": "canola plant yield", "setting": "canola (Brassica napus) [2]; [4]", "result": "about 4050 kilograms (Kg)/hectare (ha)"}
    ]}
  ]
}
